In ChEMBL document CHEMBL3352324, “Progress in the discovery and development of heat shock protein 90 (Hsp90) inhibitors” (J Med Chem, 2014):
Values belong to the molecule of their own block, whether it stands above or below them.

Key:
[1] = Drug metabolism in human liver microsomes; format: ADME; details: read-out: Drug metabolism
[2] = Antiproliferative activity against human colon cancer cells; format: functional, cell-based; details: Cancer cell lines
Homo sapiens = assay: Toxicity in patient assessed as median survival time at 450 mg/m'2, iv administered per week; format: organism-based; details: in vivo
MCF7 = assay: Antiproliferative activity against human MCF7 cells; format: functional, cell-based
[3] = Cytotoxicity against human ARPE19 cells; format: cell-based; details: ARPE-19
HUVEC = assay: Cytotoxicity against HUVEC; format: cell-based; details: Homo sapiens
Heat shock protein HSP90 = Heat shock protein HSP90 (Homo sapiens, UniProt P07900+P08238); assay: Inhibition of HSP90 (unknown origin); format: protein assay

metabolised [1]: 90%
SMILES: O=C1CCCC/C=C/CCOC(=O)c2c(O)cc(O)c(Cl)c2C1
IC50 [2]: 7.6 µM

SMILES: C=CCNC1=C2C[C@@H](C)C[C@H](OC)[C@H](O)[C@@H](C)/C=C(\C)[C@H](OC(N)=O)[C@@H](OC)/C=C\C=C(/C)C(=O)NC(=CC1=O)C2=O [TANESPIMYCIN]
MST (Homo sapiens): 232 days

SMILES: O=C(O[C@@H]1Cc2c(O)cc(O)cc2O[C@@H]1c1cc(O)c(O)c(O)c1)c1cc(O)c(O)c(O)c1 [EPIGALOCATECHIN GALLATE]
IC50 (MCF7): 74 µM

SMILES: CO[C@H]1/C=C\C=C(/C)C(=O)NC2=C(c3ccccc3)C(=O)C(NCCN(C)C)=C(C[C@@H](C)C[C@H](OC)[C@H](O)[C@@H](C)/C=C(\C)[C@@H]1OC(N)=O)C2=O (stereo in doubt)
IC50 [3]: < 5 µM
IC50 (HUVEC): < 5 µM

metabolised [1]: 47%
IC50 (Heat shock protein HSP90): 0.2 µM
SMILES: O=C1NCC/C=C/CCCC(C(=O)NCc2ccccc2)C(=O)Cc2c(Cl)c(O)cc(O)c21 (stereo unspecified)
IC50 [2]: 0.6 µM

SMILES: CC(=O)Oc1ccc(C(=O)O[C@@H]2Cc3c(O)cc(O)cc3O[C@@H]2c2ccccc2)cc1CC=C(C)C
IC50 (MCF7): 4 µM

SMILES: C[C@@H]1C[C@H]2O[C@@H]2/C=C\C=C\C(=O)Cc2c(Cl)c(O)cc(O)c2C(=O)O1 [RADICICOL]
metabolised [1]: 83%
